Non-standard residues stand in square brackets, D forms with d. Residues, ends and D or L forms follow the SMILES beside them. *: point of attachment. Dolaproine = CO[C@@H]([C@@H]1CCCN1)[C@@H](C)C(=O)O; Dil = CC[C@H](C)[C@H](NC)[C@@H](CC(=O)O)OC; Doe = c1ccc(C[C@H](N*)c2nccs2)cc1; NMeαMePro = CN1CCC[C@@]1(C)C(=O)*; Ac4c(3-oxa) = NC1(C(=O)O)COC1; NHPhenethyl = c1ccc(CCN*)cc1; αMeV = CC(C)[C@](C)(N)C(=O)O; αMeP = C[C@@]1(C(=O)O)CCCN1; NMeAib = CNC(C)(C)C(=O)O; Ac5c = NC1(C(=O)O)CCCC1; Aib = CC(C)(N)C(=O)O; OtBu = CC(C)(C)O*
Legend:
Assay in all cases: In vitro cell assay, MTS cell viability 96 hours after treatment
Assay type in all cases: cell-based
BT474 (breast cancer) = details: Homo sapiens, BT-474, BT474 cells; geometric mean; cytotoxic peptides; read-out: BT474 GMEAN IC50
Summary of the method: (§1)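 Antibody-drug conjugates or free (unconjugated) compounds were applied in duplicate at 10 concentrations from 3-fold serial dilutions. Viability was measured by MTS assay and expressed as percentage of untreated control.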

[1] = tested on: MDA-MB-361-DYT2 (breast cancer); details: read-out: MDA-MB-361-DYT2 GMEAN IC50, MDA-MB-361-DYT2 cells; geometric mean; cytotoxic peptides
Summary of the method: as §1

N87 (gastric cancer) = details: read-out: N87 GMEAN IC50, N87 cells; geometric mean; cytotoxic peptides
Summary of the method: as §1

CC[C@H](C)[C@@H]([C@@H](CC(=O)N1CCC[C@H]1[C@H](OC)[C@@H](C)C(=S)N[C@@H](Cc1ccccc1)c1nccs1)OC)N(C)C(=O)[C@@H](NC(=O)C(C)(C)N)C(C)C [#34, 2-methylalanyl-N-[(3R,4S,5S)-3-methoxy-1-{(2S)-2-[(1R,2R)-1-methoxy-2-methyl-3-{[(1S)-2-phenyl-1-(1,3-thiazol-2-yl)ethyl]amino}-3-thioxopropyl]pyrrolidin-1-yl}-5-methyl-1-oxoheptan-4-yl]-N-methyl-L-valinamide]
IC50 (BT474 (breast cancer)): 0.211 nM
IC50 [1]: 1.12 nM
IC50 (N87 (gastric cancer)): 1.95 nM

CC[C@H](C)[C@@H]([C@@H](CC(=O)N1CCC[C@H]1[C@H](OC)[C@@H](C)C(=S)N[C@@H](Cc1ccccc1)C(=O)O)OC)N(C)C(=O)[C@@H](NC(=O)[C@@H](NC)C(C)C)C(C)C [#41, N-methyl-L-valyl-N-[(3R,4S,5S)-1-{(2S)-2-[(1R,2R)-3-{[(1S)-1-carboxy-2-phenylethyl]amino}-1-methoxy-2-methyl-3-thioxopropyl]pyrrolidin-1-yl}-3-methoxy-5-methyl-1-oxoheptan-4-yl]-N-methyl-L-valinamide]
IC50 (BT474 (breast cancer)): 29.7 nM
IC50 [1]: 51.8 nM
IC50 (N87 (gastric cancer)): 33.2 nM

CC[C@H](C)[C@@H]([C@@H](CC(=O)N1CCC[C@H]1[C@H](OC)[C@@H](C)C(=S)N[C@@H](Cc1ccccc1)C(=O)OC)OC)N(C)C(=O)[C@@H](NC(=O)[C@@H](NC)C(C)C)C(C)C [#42, N-methyl-L-valyl-N-[(3R,4S,5S)-3-methoxy-1-{(2S)-2-[(1R,2R)-1-methoxy-3-{[(2S)-1-methoxy-1-oxo-3-phenylpropan-2-yl]amino}-2-methyl-3-thioxopropyl]pyrrolidin-1-yl}-5-methyl-1-oxoheptan-4-yl]-N-methyl-L-valinamide]
IC50 (BT474 (breast cancer)): 0.125 nM
IC50 [1]: 0.195 nM
IC50 (N87 (gastric cancer)): 0.327 nM

CC[C@H](C)[C@@H]([C@@H](CC(=O)N1CCC[C@H]1[C@H](OC)[C@@H](C)C(=S)N[C@@H](Cc1ccccc1)C(=O)O)OC)N(C)C(=O)[C@@H](NC(=O)C(C)(C)N)C(C)C [#44, 2-methylalanyl-N-[(3R,4S,5S)-1-{(2S)-2-[(1R,2R)-3-{[(1S)-1-carboxy-2-phenylethyl]amino}-1-methoxy-2-methyl-3-thioxopropyl]pyrrolidin-1-yl}-3-methoxy-5-methyl-1-oxoheptan-4-yl]-N-methyl-L-valinamide]
IC50 (BT474 (breast cancer)): 7.12 nM
IC50 [1]: > 16.4 nM
IC50 (N87 (gastric cancer)): 14.6 nM

CC[C@H](C)[C@@H]([C@@H](CC(=O)N1CCC[C@H]1[C@H](OC)[C@@H](C)C(=O)N[C@@H](Cc1ccccc1)c1nccs1)OC)N(C)C(=O)[C@@H](NC(=O)C1(N)CCCC1)C(C)C [#47, N^2-[(1-aminocyclopentyl)carbonyl]-N-[(3R,4S,5S)-3-methoxy-1-{(2S)-2-[(1R,2R)-1-methoxy-2-methyl-3-oxo-3-{[(1S)-2-phenyl-1-(1,3-thiazol-2-yl)ethyl]amino}propyl]pyrrolidin-1-yl}-5-methyl-1-oxoheptan-4-yl]-N-methyl-L-valinamide] (H-[Ac5c]V[Dil][Dolaproine]-Doe)
IC50 (BT474 (breast cancer)): < 0.244 nM
IC50 [1]: 0.317 nM
IC50 (N87 (gastric cancer)): < 0.256 nM

CC[C@H](C)[C@@H]([C@@H](CC(=O)N1CCC[C@H]1[C@H](OC)[C@@H](C)C(=O)NCCc1ccccc1)OC)N(C)C(=O)[C@@H](NC(=O)C(C)(C)N)C(C)C [#56, 2-methylalanyl-N-{(3R,4S,5S)-3-methoxy-1-[(2S)-2-{(1R,2R)-1-methoxy-2-methyl-3-oxo-3-[(2-phenylethyl)amino]propyl}pyrrolidin-1-yl]-5-methyl-1-oxoheptan-4-yl}-N-methyl-L-valinamide] (H-[Aib]V[Dil][Dolaproine]-NHPhenethyl)
IC50 (BT474 (breast cancer)): 0.316 nM
IC50 [1]: 0.766 nM
IC50 (N87 (gastric cancer)): 1.26 nM

CC[C@H](C)[C@@H]([C@@H](CC(=O)N1CCC[C@H]1[C@H](OC)[C@@H](C)C(=O)NCCc1ccccc1)OC)N(C)C(=O)[C@@H](NC(=O)C1(N)COC1)C(C)C [#75, N^2-[(3-aminooxetan-3-yl)carbonyl]-N-{(3R,4S,5S)-3-methoxy-1-[(2S)-2-{(1R,2R)-1-methoxy-2-methyl-3-oxo-3-[(2-phenylethyl)amino]propyl}pyrrolidin-1-yl]-5-methyl-1-oxoheptan-4-yl}-N-methyl-L-valinamide] (H-[Ac4c(3-oxa)]V[Dil][Dolaproine]-NHPhenethyl)
IC50 (BT474 (breast cancer)): > 100 nM
IC50 [1]: > 100 nM
IC50 (N87 (gastric cancer)): > 100 nM

CC[C@H](C)[C@@H]([C@@H](CC(=O)N1CCC[C@H]1[C@H](OC)[C@@H](C)C(=S)N[C@@H](Cc1ccccc1)C(=O)OC)OC)N(C)C(=O)[C@@H](NC(=O)C(C)(C)NC)C(C)C [#79, N,2-dimethylalanyl-N-[(3R,4S,5S)-3-methoxy-1-{(2S)-2-[(1R,2R)-1-methoxy-3-{[(2S)-1-methoxy-1-oxo-3-phenylpropan-2-yl]amino}-2-methyl-3-thioxopropyl]pyrrolidin-1-yl}-5-methyl-1-oxoheptan-4-yl]-N-methyl-L-valinamide]
IC50 (BT474 (breast cancer)): 0.079 nM
IC50 [1]: 0.129 nM
IC50 (N87 (gastric cancer)): 0.137 nM

CC[C@H](C)[C@@H]([C@@H](CC(=O)N1CCC[C@H]1[C@H](OC)[C@@H](C)C(=S)N[C@@H](Cc1ccccc1)C(=O)O)OC)N(C)C(=O)[C@@H](NC(=O)C(C)(C)NC)C(C)C [#80, N,2-dimethylalanyl-N-[(3R,4S,5S)-1-{(2S)-2-[(1R,2R)-3-{[(1S)-1-carboxy-2-phenylethyl]amino}-1-methoxy-2-methyl-3-thioxopropyl]pyrrolidin-1-yl}-3-methoxy-5-methyl-1-oxoheptan-4-yl]-N-methyl-L-valinamide]
IC50 (BT474 (breast cancer)): 20.3 nM
IC50 [1]: 32.8 nM
IC50 (N87 (gastric cancer)): 28.2 nM

CC[C@H](C)[C@@H]([C@@H](CC(=O)N1CCC[C@H]1[C@H](OC)[C@@H](C)C(=S)N[C@@H](Cc1ccccc1)c1nccs1)OC)N(C)C(=O)[C@@H](NC(=O)C(C)(C)NC)C(C)C [#84, N,2-dimethylalanyl-N-[(3R,4S,5S)-3-methoxy-1-{(2S)-2-[(1R,2R)-1-methoxy-2-methyl-3-{[(1S)-2-phenyl-1-(1,3-thiazol-2-yl)ethyl]amino}-3-thioxopropyl]pyrrolidin-1-yl}-5-methyl-1-oxoheptan-4-yl]-N-methyl-L-valinamide]
IC50 (BT474 (breast cancer)): 0.246 nM
IC50 [1]: 0.686 nM
IC50 (N87 (gastric cancer)): 0.426 nM

CC[C@H](C)[C@@H]([C@@H](CC(=O)N1CCC[C@H]1[C@H](OC)[C@@H](C)C(=O)N[C@@H](Cc1ccccc1)C(=O)O)OC)N(C)C(=O)[C@@H](NC(=O)C(C)(C)NC)C(C)C [#115, N,2-dimethylalanyl-N-{(1S,2R)-4-{(2S)-2-[(1R,2R)-3-{[(1S)-1-carboxy-2-phenylethyl]amino}-1-methoxy-2-methyl-3-oxopropyl]pyrrolidin-1-yl}-2-methoxy-1-[(1S)-1-methylpropyl]-4-oxobutyl}-N-methyl-L-valinamide] (H-[NMeAib]V[Dil][Dolaproine]F-OH)
IC50 (BT474 (breast cancer)): 31.5 nM
IC50 [1]: 19.9 nM
IC50 (N87 (gastric cancer)): 50.3 nM

CC[C@H](C)[C@@H]([C@@H](CC(=O)N1CCC[C@H]1[C@H](OC)[C@@H](C)C(=O)N[C@@H](Cc1ccccc1)C(=O)O)OC)N(C)C(=O)[C@@H](NC(=O)[C@]1(C)CCCN1)C(C)C [#118, 2-methyl-L-prolyl-N-[(3R,4S,5S)-1-{(2S)-2-[(1R,2R)-3-{[(1S)-1-carboxy-2-phenylethyl]amino}-1-methoxy-2-methyl-3-oxopropyl]pyrrolidin-1-yl}-3-methoxy-5-methyl-1-oxoheptan-4-yl]-N-methyl-L-valinamide] (H-[αMeP]V[Dil][Dolaproine]F-OH)
IC50 (BT474 (breast cancer)): ≥ 100 nM
IC50 [1]: ≥ 100 nM
IC50 (N87 (gastric cancer)): ≥ 100 nM

CC[C@H](C)[C@@H]([C@@H](CC(=O)N1CCC[C@H]1[C@H](OC)[C@@H](C)C(=O)N[C@@H](Cc1ccccc1)C(=O)OC(C)(C)C)OC)N(C)C(=O)[C@@H](NC(=O)C(C)(C)N)C(C)C [#123, 2-methylalanyl-N-[(3R,4S,5S)-1-{(2S)-2-[(1R,2R)-3-{[(2S)-1-tert-butoxy-1-oxo-3-phenylpropan-2-yl]amino}-1-methoxy-2-methyl-3-oxopropyl]pyrrolidin-1-yl}-3-methoxy-5-methyl-1-oxoheptan-4-yl]-N-methyl-L-valinamide] (H-[Aib]V[Dil][Dolaproine]F-OtBu)
IC50 (BT474 (breast cancer)): 0.125 nM
IC50 [1]: 0.129 nM
IC50 (N87 (gastric cancer)): 0.089 nM

CC[C@H](C)[C@@H]([C@@H](CC(=O)N1CCC[C@H]1[C@H](OC)[C@@H](C)C(=O)N[C@@H](Cc1ccccc1)C(=O)OC)OC)N(C)C(=O)[C@@H](NC(=O)[C@@](C)(N)C(C)C)C(C)C [#147, 3-methyl-L-isovalyl-N-{(1S,2R)-4-{(2S)-2-[(1R,2R)-3-{[(1S)-1-benzyl-2-methoxy-2-oxoethyl]amino}-1-methoxy-2-methyl-3-oxopropyl]pyrrolidin-1-yl}-2-methoxy-1-[(1S)-1-methylpropyl]-4-oxobutyl}-N-methyl-L-valinamide] (H-[αMeV]V[Dil][Dolaproine]F-OMe)
IC50 (BT474 (breast cancer)): 0.456 nM
IC50 [1]: 0.421 nM
IC50 (N87 (gastric cancer)): 0.144 nM

CC[C@H](C)[C@@H]([C@@H](CC(=O)N1CCC[C@H]1[C@H](OC)[C@@H](C)C(=O)N[C@@H](Cc1ccccc1)C(=O)O)OC)N(C)C(=O)[C@@H](NC(=O)[C@]1(C)CCCN1C)C(C)C [#151, 1,2-dimethyl-L-prolyl-N-{(1S,2R)-4-{(2S)-2-[(1R,2R)-3-{[(1S)-1-carboxy-2-phenylethyl]amino}-1-methoxy-2-methyl-3-oxopropyl]pyrrolidin-1-yl}-2-methoxy-1-[(1S)-1-methylpropyl]-4-oxobutyl}-N-methyl-L-valinamide] (NMeαMePro-V[Dil][Dolaproine]F-OH)
IC50 (BT474 (breast cancer)): 84.9 nM
IC50 [1]: 84.6 nM
IC50 (N87 (gastric cancer)): 62 nM

Source: patent US8828401B2, “Cytotoxic peptides and antibody drug conjugates thereof” (Pfizer Inc., priority 2011, dated 2014)
